# Assay results as given in US8791132B2, “Compounds and methods for treatment of hypertension” (Medivation Technologies, Inc., priority 2011, dated 2014).
# Read-outs that look alike come from different tables or passages of the source.
# Columns and labels:
# [1] = molecular target: T1, human recombinant adrenergic α2B receptor (Homo sapiens, UniProt P18089); test: Radioligand binding, adrenergic α2B ([3H]Rauwolscine)
# T1 construct: expressed in transfected cells; host or cells: CHO-K1
# T1 sequence (P18089 1-450): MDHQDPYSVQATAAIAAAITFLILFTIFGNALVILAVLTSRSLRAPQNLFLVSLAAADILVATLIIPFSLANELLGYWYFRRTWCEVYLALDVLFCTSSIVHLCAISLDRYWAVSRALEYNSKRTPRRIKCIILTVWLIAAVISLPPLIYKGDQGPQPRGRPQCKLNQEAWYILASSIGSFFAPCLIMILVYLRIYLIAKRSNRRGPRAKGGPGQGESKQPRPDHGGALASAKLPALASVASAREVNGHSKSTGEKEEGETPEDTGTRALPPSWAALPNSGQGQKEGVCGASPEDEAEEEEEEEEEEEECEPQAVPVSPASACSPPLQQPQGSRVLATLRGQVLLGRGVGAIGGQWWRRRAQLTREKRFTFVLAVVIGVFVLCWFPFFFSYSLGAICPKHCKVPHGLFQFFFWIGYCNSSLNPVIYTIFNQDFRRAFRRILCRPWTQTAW
# How it was run: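 Assay used CHO-K1-expressed human α2B receptor in Tris-HCl pH 7.4 buffer with MgCl2, EDTA and BSA; 60 min incubation at 25 °C.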
# [2] = molecular target: T2, human recombinant adrenergic α2A receptor (Homo sapiens, UniProt P08913); test: Radioligand binding, adrenergic α2A ([3H]MK-912)
# T2 construct: expressed in transfected cells; host or cells: insect Sf9 cells
# T2 sequence (P08913 1-465): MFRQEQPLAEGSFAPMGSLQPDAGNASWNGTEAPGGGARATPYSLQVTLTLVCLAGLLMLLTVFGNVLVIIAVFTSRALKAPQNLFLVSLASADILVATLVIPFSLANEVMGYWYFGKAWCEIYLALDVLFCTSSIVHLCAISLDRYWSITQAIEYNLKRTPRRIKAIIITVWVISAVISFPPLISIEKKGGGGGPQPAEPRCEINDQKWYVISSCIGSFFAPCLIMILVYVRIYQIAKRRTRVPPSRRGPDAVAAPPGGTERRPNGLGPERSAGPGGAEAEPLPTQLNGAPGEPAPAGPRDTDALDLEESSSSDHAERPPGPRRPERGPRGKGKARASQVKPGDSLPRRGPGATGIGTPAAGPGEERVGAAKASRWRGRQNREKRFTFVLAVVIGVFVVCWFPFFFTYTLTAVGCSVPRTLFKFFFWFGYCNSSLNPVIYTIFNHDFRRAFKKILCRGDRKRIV
# How it was run: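 Sf9 membranes, 1 nM [3H]MK-912, 60 min, 25 °C, Tris-HCl pH 7.4/MgCl2/EDTA buffer. NSB: 10 μM WB-4101. Filtration, counting; % inhibition of specific binding.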
# [3] = molecular target: T3, rat adrenergic α1B receptor (Rattus norvegicus, UniProt P15823); test: Radioligand binding, adrenergic α1B ([3H]Prazosin)
# T3 construct: rat adrenergic α1B receptor obtained from Wistar Rat liver; from tissue; host or cells: Wistar rat liver
# T3 sequence (P15823 1-515): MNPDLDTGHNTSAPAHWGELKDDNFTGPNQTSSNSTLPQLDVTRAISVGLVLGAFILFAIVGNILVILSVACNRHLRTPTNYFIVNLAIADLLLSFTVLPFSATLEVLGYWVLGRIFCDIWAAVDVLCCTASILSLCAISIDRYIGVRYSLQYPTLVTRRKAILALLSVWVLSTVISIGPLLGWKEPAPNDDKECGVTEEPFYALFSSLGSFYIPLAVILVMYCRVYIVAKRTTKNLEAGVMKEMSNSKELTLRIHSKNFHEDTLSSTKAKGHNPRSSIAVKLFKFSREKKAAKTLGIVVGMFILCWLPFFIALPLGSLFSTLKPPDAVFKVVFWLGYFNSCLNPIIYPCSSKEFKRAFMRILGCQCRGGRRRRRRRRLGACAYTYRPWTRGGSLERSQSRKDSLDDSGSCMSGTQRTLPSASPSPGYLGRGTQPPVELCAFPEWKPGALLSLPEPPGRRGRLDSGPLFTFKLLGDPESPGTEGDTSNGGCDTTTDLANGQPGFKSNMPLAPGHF
# How it was run: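 Rat α1B receptor from Wistar rat liver was incubated with 0.25 nM [3H]prazosin for 60 min at 25 °C in 50 mM Tris-HCl, pH 7.4, 0.5 mM EDTA. Non-specific binding was defined with 10 μM phentolamine. Bound radioligand was measured by filtration and counting, reported as percent inhibition of specific binding.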
# [4] = molecular target: T4, human recombinant adrenergic α1D receptor (Homo sapiens, UniProt P25100); test: Radioligand binding, adrenergic α1D ([3H]Prazosin)
# T4 construct: expressed in transfected cells; host or cells: HEK-293
# T4 sequence (P25100 1-572): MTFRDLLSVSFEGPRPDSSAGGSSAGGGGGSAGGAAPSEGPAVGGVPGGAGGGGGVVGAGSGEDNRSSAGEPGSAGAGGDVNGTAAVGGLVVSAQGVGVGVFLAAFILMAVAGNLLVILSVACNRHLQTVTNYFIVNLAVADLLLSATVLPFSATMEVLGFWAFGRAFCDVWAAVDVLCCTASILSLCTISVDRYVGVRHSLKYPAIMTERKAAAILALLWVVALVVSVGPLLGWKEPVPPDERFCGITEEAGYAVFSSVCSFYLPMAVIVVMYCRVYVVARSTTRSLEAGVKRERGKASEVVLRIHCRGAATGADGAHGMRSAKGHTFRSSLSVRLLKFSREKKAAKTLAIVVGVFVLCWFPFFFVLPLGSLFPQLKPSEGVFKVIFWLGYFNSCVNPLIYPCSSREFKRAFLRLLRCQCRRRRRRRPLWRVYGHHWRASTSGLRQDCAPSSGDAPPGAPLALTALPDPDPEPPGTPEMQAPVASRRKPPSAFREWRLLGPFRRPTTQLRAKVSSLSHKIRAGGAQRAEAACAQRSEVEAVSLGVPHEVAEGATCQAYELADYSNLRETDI
# Method: Compounds were incubated with 0.6 nM [3H]Prazosin for 60 min at 25° C. Non-specific binding was estimated in the presence of 10 μM phentolamine. Receptor proteins were filtered and washed, the filters were then counted to determine [3H]Prazosin specifically bound. […] Biochemical assay results are presented as the percent inhibition of specific binding in Table B1.
# [5] = 0.1 μM compound, read-out: Percentage inhibition of ligand binding, Adrenergic α2B
# [6] = 0.1 μM compound, read-out: Percentage inhibition of ligand binding, Adrenergic α2A
# [7] = 0.1 μM compound, read-out: Percentage inhibition of ligand binding, Adrenergic α1B
# [8] = 0.1 μM compound, read-out: Percentage inhibition of ligand binding, Adrenergic α1D
# [9] = read-out: Percentage inhibition of ligand binding, Adrenergic α2B (0.1 μM), compound at 0.1 μM, [3H]Rauwolscine, repeat datapoints each shown
# [10] = read-out: Percentage inhibition of ligand binding, Adrenergic α2A (0.1 μM), compound at 0.1 μM, [3H]MK-912, repeat datapoints each shown
# [11] = read-out: Percentage inhibition of ligand binding, Adrenergic α1B (0.1 μM), compound at 0.1 μM, [3H]Prazosin, repeat datapoints each shown
# [12] = read-out: Percentage inhibition of ligand binding, Adrenergic α1D (0.1 μM), compound at 0.1 μM, [3H]Prazosin, repeat datapoints each shown
# [13] = compound at 0.1 μM, [3H]Rauwolscine, repeat assays, each datapoint shown, read-out: Percentage inhibition of ligand binding, Adrenergic α2B
# [14] = compound at 0.1 μM, [3H]MK-912, repeat assays, each datapoint shown, read-out: Percentage inhibition of ligand binding, Adrenergic α2A
# [15] = compound at 0.1 μM, [3H]Prazosin, repeat assays, each datapoint shown, read-out: Percentage inhibition of ligand binding, Adrenergic α1B
# [16] = compound at 0.1 μM, [3H]Prazosin, repeat assays, each datapoint shown, read-out: Percentage inhibition of ligand binding, Adrenergic α1D
"inhibition at 0.1 µM [1, 5] [%]","inhibition at 0.1 µM [2, 6] [%]","inhibition at 0.1 µM [3, 7] [%]","inhibition at 0.1 µM [4, 8] [%]",Compound,other results
76,97,83,81,C/C(=C/n1c2c(c3cc(C)ccc31)CN(C)CC2)c1ccc2ccn(C)c2c1 [compound 284],
89,67,88,71,C/C(=C/n1c2c(c3cc(C)ccc31)CN(C)CC2)c1ccnn1C [compound 273],
96,80,90,79,C/C(=C/n1c2c(c3cc(C)ccc31)CN(C)CC2)c1cccc2[nH]ncc12 [compound 290],
104,58,13,23,C/C(=C\n1c2c(c3cc(C)ccc31)CN(C)CC2)c1cncc2ccccc12 [compound 292],
92,62,63,72,COc1ccc(/C(C)=C/n2c3c(c4cc(C)ccc42)CN(C)CC3)cn1 [compound 266],
104,60,68,78,CCCc1ccc(/C(C)=C/n2c3c(c4cc(C)ccc42)CN(C)CC3)cn1 [compound 329],

# Continued, compound first:
Compound,"inhibition at 0.1 µM [1, 5] [%]","inhibition at 0.1 µM [2, 6] [%]","inhibition at 0.1 µM [3, 7] [%]","inhibition at 0.1 µM [4, 8] [%]",other results
C/C(=C/n1c2c(c3cc(Cl)ccc31)CCN(C)CC2)c1cccc(F)c1 [compound 247],89,96,95,81,
Cc1cnc2c(c1)c1c(n2CCc2ccc(C)nc2)CC2CCCN2C1 (stereo not drawn) [II-235],,,,,"inhibition at 0.1 µM [1, 9]: 45%; inhibition at 0.1 µM [2, 10]: 3%; inhibition at 0.1 µM [3, 11]: 58%; inhibition at 0.1 µM [4, 12]: 28%"
Cc1ccc2c(c1)c1c(n2CC(C)(C)c2ccncc2)CCN(C)C1 [compound 260],92,54,45,26,
Cc1ccc2c(c1)c1c(n2CC(C)(O)c2ccc(C)nc2)CCN(C)C1 (stereo not drawn) [compound 29],,,,,"inhibition at 0.1 µM [1, 13]: 100%; inhibition at 0.1 µM [2, 14]: 10%; inhibition at 0.1 µM [3, 15]: 24%; inhibition at 0.1 µM [4, 16]: 1%"
CN1CCc2c(c3cc(Cl)ccc3n2CCC(=O)OC2CCCC2)C1 [compound 88],,,,,"inhibition at 0.1 µM [1, 13]: 90%; inhibition at 0.1 µM [2, 14]: 2%; inhibition at 0.1 µM [3, 15]: 10%; inhibition at 0.1 µM [4, 16]: 36%"
Cc1ccc2c(c1)c1c(n2C#Cc2ccncc2)CCN(C)C1 [compound 264],82,81,79,46,
"Cc1ccc2c(c1)c1c(n2C#Cc2cnc3ccccc3c2)CCN(C)C1 [compound 321, 2,8-dimethyl-5-quinolin-3-ylethynyl-2,3,4,5-tetrahydro-1H-pyrido[4,3-b]indole]",90,59,94,66,
C/C(=C\n1c2c(c3cc(C)ccc31)CN(C)CC2)c1c(C)noc1C [compound 110],,,,,"inhibition at 0.1 µM [1, 9]: 62%; inhibition at 0.1 µM [2, 10]: 27%; inhibition at 0.1 µM [3, 11]: 5%; inhibition at 0.1 µM [4, 12]: 35%"
COc1ccc2c(c1)c1c(n2/C=C(/C)c2ccncc2)CCN(C)C1 [compound 100],,,,,"inhibition at 0.1 µM [1, 9]: 72%; inhibition at 0.1 µM [2, 10]: 20%; inhibition at 0.1 µM [3, 11]: 73%; inhibition at 0.1 µM [4, 12]: 47%"
"Cc1ccc2c(c1)c1c(n2C#Cc2cccc3cnccc23)CCN(C)C1 [compound 313, 5-isoquinolin-5-ylethynyl-2,8-dimethyl-2,3,4,5-tetrahydro-1H-pyrido[4,3-b]indole]",73,73,92,53,
"Cc1ccc2c(c1)c1c(n2CCc2cscc2C)CCN(C)C1 [compound 318, 2,8-dimethyl-5-[2-(4-methyl-thiophen-3-yl)-ethyl]-2,3,4,5-tetrahydro-1H-pyrido[4,3-b]indole]",103,95,94,60,
CN1CCc2c(c3cc(Cl)ccc3n2CC(C)(O)c2ccncc2)C1 (stereo not drawn) [compound 1],,,,,"inhibition at 0.1 µM [1, 13]: 74%; inhibition at 0.1 µM [2, 14]: 6%; inhibition at 0.1 µM [3, 15]: 32%; inhibition at 0.1 µM [4, 16]: 16%"
Cc1ccc(CCn2c3c(c4c(Cl)ccc(Cl)c42)CN(C)CC3)cn1 [compound 325],-6,81,-1,1,"Ki ([1]; read-out: Ki α2B): 206 nM; Ki [2]: 9.88 nM; inhibition at 0.03 µM ([2]; 0.03 μM compound, read-out: Percentage inhibition of ligand binding, Adrenergic α2A): 53%; Percentage inhibition of ligand binding, Adrenergic α2A ([2]; 0.1 μM compound, 0.1 µM): 84%"
COCc1ccc(/C(C)=C/n2c3c(c4cc(C)ccc42)CN(C)CC3)cn1 [compound 126],,,,,"inhibition at 0.1 µM [1, 9]: 82%; inhibition at 0.1 µM [2, 10]: 12%; inhibition at 0.1 µM [3, 11]: 30%; inhibition at 0.1 µM [4, 12]: 46%"
